Measurements published in patent US11925634B2, “Use of koumine in preparation of medicament for treatment of inflammatory bowel disease” (Fujian Medical University, priority 2019, dated 2024).

Experiments:
[1] = tested on: mice with DSS-induced bowel inflammation; assay: DSS-induced bowel inflammation in C57BL/6 mice (body weight, defecation, colon length, histopathology); assay type: in vivo; settings: for histopathological scoring: p<0.01 vs model, FIG. 4
Method: Dextran sulfate sodium (DSS) has an anticoagulant effect and, when orally administered to experimental animals, can cause hyperemia, ulcers, submucosal edema in bowel tissue and other pathological manifestations closely similar to those of clinical IBD patients. Models of DSS-induced bowel inflammation can be taken as basic models for studying the pathogenesis of UC and even IBD and evaluating the efficacy of therapeutic medicaments. In this example, therapeutic effects of koumine were evaluated in a C57BL/6 mouse model of DSS-induced bowel inflammation with the animals' body weight, defecation, pathological manifestations of colonic tissue, expression of MPO in colonic tissue and the like as indicators.
1.1. Experimental Animals Six to eight week old healthy male SPF C57BL/6 mice (weighing 18-22 g) were purchased from Shanghai SLAC Laboratory Animal Co., Ltd. (License No. SOCK (Shanghai) 2017-0005). Prior to study start, the mice were acclimated for 7 days until their body weights reached 20±2 g. They were bred under conditions of a 12/12-h light-dark cycle (light on 8:00-20:00), constant temperature (20-26° C.) and constant humidity (40-70%), with food and water provided ad libitum. Experimental operations were conducted in accordance with regulations of international and local committees on care and use of laboratory animals (the same applies below).
(§1) 1.2. Medicaments and Reagents Koumine hydrochloride (C20H22N2O·HCl) (in the form of a powder) was prepared in the School of Pharmacy, Fujian Medical University (Batch No. KM201610, with a purity of 99.99% as determined by high performance liquid chromatography), stored at 4° C. in the dark, and dissolved in normal saline to a desired concentration before use. DSS was purchased from MP Biomedicals, USA and fully dissolved in distilled water to a desired concentration before use. Mesalazine enteric coated tablets were purchased from Heilongjiang Tianhong Pharmaceutical Co., Ltd. A citrate (pH=6.0) antigen retrieval solution, BSA, an anti-myeloperoxidase primary antibody, an HRP-conjugated goat anti-rabbit secondary antibody and a histochemistry kit for DAB staining were purchased from Wuhan Servicebio Technology Co., Ltd. (the same applies below).
(§2) Fifty-one healthy SPF C57BL/6 mice were randomly assigned into a blank control group (n=6), a model group (n=9) and 4 treatment groups (n=9 for each) respectively administered with low (0.67 mg/kg), medium (2 mg/kg) and high (6 mg/kg) doses of koumine, as well as mesalazine (100 mg/kg) as a positive control. A mouse model of DSS-induced bowel inflammation was established by allowing the mice in the model group and the individual treatment groups to have free access to a 2.5% DSS solution in water for 8 days and providing ad libitum access to normal water to the mice in the blank control group. From the day of induction (D0), the mice in the treatment groups received intragastric administration (0.1 mL/10 g) once a day for 9 consecutive days (D0-D8), while those in the control and model groups were given the same volumes of normal saline also by intragastric administration throughout the same period. Body weight measurements were taken and fecal occult blood tests were performed daily. One hour after the last administration (D8), the mice were sacrificed by cervical dislocation under anesthesia. Immediately after that, a bowel segment from the terminal ileum to the anus was removed from each mouse, and a length from the ileocolonic junction to the anus was measured and recorded. Colonic tissue was taken 1 cm away from the anus for histopathological examination, as well as for immunohistochemical detection for the expression of MPO. Additionally, colonic tissue was taken 1-2 cm away from the anus for MPO activity determination.

myeloperoxidase (MPO) [2] = assay: Immunohistochemical detection of MPO expression in colonic tissue, DSS model; assay type: in vivo, C57BL/6 mice
Method: as §1, §2

[3] = tested on: mice with OXA-induced colitis; assay: OXA-induced colitis in BALB/c mice (body weight, colon length, histomorphology); assay type: in vivo
Excerpt: OXA-induced colitis causes lesions primarily in the distal colon and resembles human IBD in terms of histological characteristics and distribution of inflammation, which can be manifested as a decrease in goblet cells.
Six to eight week old healthy male SPF BALB/c mice were purchased from Shanghai SLAC Laboratory Animal Co., Ltd. (License No. SOCK (Shanghai) 2017-0005).
The same koumine hydrochloride and mesalazine as in Example 1 were used. OXA was purchased from Sigma, USA and prepared in the form of a solution before use by fully dissolving it in absolute ethanol preheated to 35° C. When used for an enema, the solution was diluted 1-fold with normal saline to a desired concentration. Absolute ethanol was purchased from Merck, Germany. All the other reagents were the same as in Example 1.
Seventy-four BALB/c mice were randomly assigned into a blank control group (n=6), a vehicle control group (n=10), a model group (n=19) and low-dose (n=10), medium-dose (n=9) and high-dose (n=12) koumine treatment groups and another treatment group (n=8) administered with mesalazine as a positive control. A mouse model of OXA-induced UC was established by sensitizing and then giving enemas to the mice in the model group and the individual treatment groups. Specifically, each of the mice was anesthetized and sensitized by drop-wise applying a 3% solution (150 μL) of OXA in absolute ethanol to a shaved abdominal area (about 1.5 cm×1.5 cm), and received an enema using a 1% solution of OXA in 50% ethanol (100 μL) five days following the sensitization (D0). The mice in the vehicle and blank control groups were treated similarly, except for drop-wise application of 150 μL absolute ethanol and normal saline in the sensitization phase, respectively, and use of 100 μL of 50% ethanol and the same volume of normal saline in the enema phase, respectively. From the day of enema administration (D0), the mice in the treatment groups received intragastric administration (0.1 mL/10 g) once a day for 4 consecutive days (D0-D3). The daily dosage of koumine and the positive control mesalazine to the treatment groups was the same as in Example 1, and the vehicle control group was given the same volumes of 50% ethanol. Bowel inflammation evaluation of the animals was conducted in the same manner using the same indicators as in Example 1.

myeloperoxidase (MPO) [4] = assay: Immunohistochemical detection of MPO expression in colonic tissue, OXA model; assay type: in vivo, BALB/c mice
Method: […]

myeloperoxidase (MPO) [5] = assay: MPO activity assay in colonic tissue homogenates, OXA model; assay type: in vivo, BALB/c mice; settings: p<0.01, p<0.001 vs model, FIG. 10
Method: […]

[6] = mesalazine 100 mg/kg intragastric

Nc1ccc(O)c(C(=O)O)c1 [mesalazine, reference compound]
microscopic manifestations of HE-stained colonic tissue ([1]; mesalazine 100 mg/kg intragastric, FIG. 3 F): obvious improvements over the model group mice | histopathological scoring [1, 6]: significantly inhibit increases in the sore of the model group | expression of MPO in colonic tissue (myeloperoxidase (MPO) [2]; mesalazine 100 mg/kg intragastric, FIG. 5 F): lowered the expression of MPO to different extents | effect of alleviating body weight loss ([3]; mesalazine 100 mg/kg intragastric once a day D0-D3, FIG. 6): comparable to that of the medium dose of koumine | positive effect on colon length ([3]; mesalazine 100 mg/kg intragastric, FIG. 7): comparable to that of koumine at 6 mg/kg | microscopic manifestations of HE-stained colonic tissue ([3]; mesalazine 100 mg/kg intragastric, FIG. 8 F): infiltration of only a small number of inflammatory cells | expression of MPO in colonic tissue (myeloperoxidase (MPO) [4]; mesalazine 100 mg/kg intragastric, FIG. 9 F): suppressed expression of MPO to varying extents | enzymatic activity of MPO in colonic tissue (myeloperoxidase (MPO) [5]; [6]): significantly reduced enzymatic activity per unit weight

C=CC12CN(C)C3CC14C(=Nc1ccccc14)C1CC2C3CO1 (centres unmarked) [koumine]
defecation and hematochezia ([1]; high dose 6 mg/kg intragastric once a day): fewer times of defecation and mitigated hematochezia | gross damage and hyperemia of bowel mucosa ([1]; koumine 0.67, 2, 6 mg/kg intragastric once a day): ameliorate damage, hyperemia and the like | symptom of weight loss ([1]; koumine 0.67, 2, 6 mg/kg intragastric once a day D0-D8, FIG. 1): alleviate the symptom of weight loss | colon shortening ([1]; koumine 0.67, 2, 6 mg/kg intragastric once a day, FIG. 2): dose-dependently reduce colon shortening | microscopic manifestations of HE-stained colonic tissue ([1]; koumine 0.67, 2, 6 mg/kg intragastric, FIG. 3 C-E): reduced inflammatory cell infiltration | histopathological scoring ([1]; koumine high dose 6 mg/kg intragastric): significantly inhibit increases in the sore of the model group | average body weight vs model group ([1]; low dose 0.67 mg/kg intragastric once a day, as early as D6 (seventh day of administration), p<0.05, FIG. 1): significantly higher than that of those in the model group | colon length vs model group ([1]; low dose 0.67 mg/kg intragastric, eighth day of administration, p<0.05, FIG. 2): significantly greater than that of the model group | defecation and hematochezia ([1]; medium dose 2 mg/kg intragastric once a day): fewer times of defecation and mitigated hematochezia | average body weight vs model group ([1]; medium dose 2 mg/kg intragastric once a day, from D5 (sixth day of administration), p<0.05 and p<0.01, FIG. 1): significantly higher than that of those in the model group | expression of MPO in colonic tissue (myeloperoxidase (MPO) [2]; high dose 6 mg/kg intragastric, FIG. 5 E): lowered the expression of MPO to different extents | expression of MPO in colonic tissue (myeloperoxidase (MPO) [2]; low dose 0.67 mg/kg intragastric, FIG. 5 C): did not lead to any noticeable decrease in the expression of MPO | expression of MPO in colonic tissue (myeloperoxidase (MPO) [2]; medium dose 2 mg/kg intragastric, FIG. 5 D): lowered the expression of MPO to different extents | gross manifestations of colonic tissue (hyperemia, redness and swelling) ([3]; high dose 6 mg/kg intragastric): remarkable relief of most manifestations of colonic tissue | microscopic manifestations of HE-stained colonic tissue ([3]; high dose 6 mg/kg intragastric, FIG. 8 E): infiltration of only a small number of inflammatory cells | body weight loss ([3]; koumine 0.67, 2, 6 mg/kg intragastric once a day D0-D3, FIG. 6): alleviate body weight loss of mice with colitis in a dose-dependent manner | positive effect on colon length ([3]; koumine 0.67, 2, 6 mg/kg intragastric, FIG. 7): dose-dependent | gross manifestations of colonic tissue (hyperemia, redness and swelling) ([3]; low dose 0.67 mg/kg intragastric): appeared to not mitigate the manifestations | microscopic manifestations of HE-stained colonic tissue ([3]; low dose 0.67 mg/kg intragastric, FIG. 8 C): slightly milder symptoms than the symptoms of the model group | colon shortening ([3]; low dose 0.67 mg/kg intragastric, p<0.01 vs model, FIG. 7): significantly reduce their colon shortening | gross manifestations of colonic tissue (hyperemia, redness and swelling) ([3]; medium dose 2 mg/kg intragastric): not seen with severe redness and swelling, hyperemia or other inflammatory manifestations | microscopic manifestations of HE-stained colonic tissue ([3]; medium dose 2 mg/kg intragastric, FIG. 8 D): infiltration of only a small number of inflammatory cells | expression of MPO in colonic tissue (myeloperoxidase (MPO) [4]; koumine at the different doses (0.67, 2, 6 mg/kg) intragastric, FIG. 9 C-E): suppressed expression of MPO to varying extents | enzymatic activity of MPO in colonic tissue (myeloperoxidase (MPO) [5]; koumine at the different doses (0.67, 2, 6 mg/kg) intragastric): significantly reduced enzymatic activity per unit weight
